Experimental data as given in PubChem BioAssay (NCI).
Values joined by “and” are separate entries in the source; they are usually repeats but may differ in a detail not shown here. Equal values may be shown once.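 Following 48 hours of exposure in 96-well plates, responses at five concentrations were used to interpolate endpoints linearly. GI50 = concentration required for 50% inhibition of growth. Definition used: TGI = concentration required for complete inhibition of growth.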

Columns and labels:
Assay in all cases: inhibition of tumour cell growth, NCI panel, 48 h
UO-31 renal = tested on: UO-31 renal
HS 578T breast = tested on: HS 578T breast
SF-268 CNS = tested on: SF-268 CNS
SK-OV-3 ovarian = tested on: SK-OV-3 ovarian
KM12 colon = tested on: KM12 colon
IGROV1 ovarian = tested on: IGROV1 ovarian
HT29 colon = tested on: HT29 colon
HOP-62 NSCLC = tested on: HOP-62 NSCLC
HCC-2998 colon = tested on: HCC-2998 colon
NCI-H522 lung = tested on: NCI-H522 lung
NCI/ADR-RES ovarian = tested on: NCI/ADR-RES ovarian
HCT-116 colon = tested on: HCT-116 colon
LOX IMVI melanoma = tested on: LOX IMVI melanoma

| SMILES | TGI (UO-31 renal) | TGI (HS 578T breast) | TGI (SF-268 CNS) | TGI (SK-OV-3 ovarian) | TGI (KM12 colon) | TGI (IGROV1 ovarian) | TGI (HT29 colon) | TGI (HOP-62 NSCLC) | TGI (HCC-2998 colon) | TGI (NCI-H522 lung) | TGI (NCI/ADR-RES ovarian) | TGI (HCT-116 colon) | TGI (LOX IMVI melanoma) | GI50 (SF-268 CNS) | GI50 (KM12 colon) | GI50 (HCC-2998 colon) | GI50 (NCI-H522 lung) | GI50 (HCT-116 colon) | GI50 (LOX IMVI melanoma) |
| --- | --- | --- | --- | --- | --- | --- | --- | --- | --- | --- | --- | --- | --- | --- | --- | --- | --- | --- | --- |
| Cc1cccc(/C=N/NC(=S)NC2CCCCC2)n1 | > 89.5 µM | > 100 µM | > 100 µM | > 100 µM | > 100 µM | > 100 µM | 42.1 µM | > 90.9 µM | > 89.5 µM | > 64.3 µM | > 67.1 µM | 19.4 µM | 99 µM |  |  |  |  |  |  |
| CN(C)c1ccc(/C=C(\NC(=O)c2ccccc2)c2nc3ccccc3c(=O)o2)cc1 | > 100 µM | > 100 µM | > 100 µM | > 100 µM | > 100 µM | > 100 µM | > 100 µM | > 100 µM | > 100 µM | > 100 µM | > 100 µM | > 100 µM | > 100 µM |  |  |  |  |  |  |
| CC(C)(C)c1cc(C(C)(C)C)c(P=C(Cl)Cl)c(C(C)(C)C)c1 (stereo not given) | > 100 µM | > 100 µM | > 100 µM | > 100 µM | > 100 µM | > 100 µM | > 100 µM | > 100 µM | > 100 µM | > 100 µM | > 100 µM | > 100 µM | > 100 µM |  |  |  |  |  |  |
| COC(=O)C1C(O)C(C)C(O)C(C)/C=C\C=C(C)C(=O)Nc2c(C)c(OC(C)=O)c3c(c2O)C(=O)C(C)=C2OCOC(=C23)C(C)=CC(C)(O)C(O)C(C)C1O (stereo not given) | > 100 µM | > 100 µM | > 100 µM | > 100 µM | > 100 µM | > 100 µM | 40.2 µM and > 100 µM | > 100 µM | > 100 µM | > 100 µM | > 100 µM | 49.6 µM and > 100 µM | 41 µM and > 100 µM | 39.4 µM | 25.1 µM and > 100 µM | > 100 µM | 23.4 µM and 74.2 µM | 20.3 µM | 17.9 µM and 41.3 µM |
| O=C(c1c(F)c(F)c(F)c(F)c1F)n1c(=O)[nH]c2ccccc21 | 25.2 µM | 38.8 µM | 34.1 µM | 29.7 µM | 5.15 µM | 24.2 µM | 18 µM | 31.6 µM | 11.6 µM | 13.6 µM | 58.1 µM | 12.2 µM | 14.9 µM |  |  |  |  |  |  |
| CCCCn1c(C)c(C)c2c1NN=C(C#N)S2(=O)=O | > 100 µM | > 100 µM | > 100 µM | > 100 µM | > 100 µM | > 100 µM | > 100 µM | > 100 µM | > 100 µM | > 100 µM | > 100 µM | > 100 µM | > 100 µM |  |  |  |  |  |  |
| N/C(=N\Nc1cccc(Cl)c1)c1cccnc1 | > 55.7 µM | > 100 µM | > 100 µM | > 100 µM | > 100 µM | > 100 µM | > 83.9 µM | > 100 µM | > 100 µM | > 100 µM | > 100 µM | > 100 µM | > 100 µM |  |  |  |  |  |  |
| O=C1c2scc(-c3ccc(F)cc3)c2-n2cccc21 | > 100 µM | > 100 µM | > 100 µM | > 100 µM | > 100 µM | > 100 µM | > 100 µM | 64.4 µM | 91.1 µM | > 100 µM | > 100 µM | > 100 µM | > 100 µM |  |  |  |  |  |  |
| CSC1=C(C)S/C(=C\c2ccc(/C=C3\SC(C)=C(SC)S3)cc2)S1 | > 100 µM | > 100 µM | > 100 µM | > 100 µM | > 100 µM | > 100 µM | > 100 µM | > 100 µM | > 100 µM | > 100 µM | > 100 µM | > 100 µM | > 100 µM |  |  |  |  |  |  |
| [N-]=[N+]=NC1(c2ccccc2)C(=O)c2cccc3c4ccccc4n(c23)C1=O (stereo not given) | > 100 µM | > 100 µM | > 100 µM | > 100 µM | > 100 µM | > 100 µM | 50.8 µM | > 100 µM | > 100 µM | > 100 µM | > 100 µM | > 100 µM | > 100 µM |  |  |  |  |  |  |
| COc1ccc(/C=C/C(=N/NC(=O)N/N=C(/C=C/c2ccc(OC)cc2)C(C)C)C(C)C)cc1 | > 100 µM | > 100 µM | > 100 µM | > 100 µM | > 100 µM | > 100 µM | > 100 µM | > 100 µM | > 100 µM | > 100 µM | > 100 µM | > 100 µM | > 100 µM |  |  |  |  |  |  |
| c1ccc2c(c1)Sc1ccccc1N2CCCN1c2ccccc2Sc2ccccc21 | > 100 µM | > 100 µM | > 100 µM | > 100 µM | > 100 µM | > 100 µM | > 100 µM | > 100 µM | > 100 µM | > 100 µM | > 100 µM | > 100 µM | > 100 µM |  |  |  |  |  |  |
| COC(=O)C1=C(C(=O)OC)C2(c3ccccc3)c3ccccc3C(=O)C1N2C1CCCCC1 (stereo not given) | > 100 µM | > 100 µM | > 100 µM | > 100 µM | > 100 µM | > 100 µM | > 100 µM | > 100 µM | > 77.4 µM | > 100 µM | > 100 µM | > 100 µM | > 100 µM |  |  |  |  |  |  |
| O=C1CSC2(CC(/C=C/c3cccc(Br)c3)=NN2c2cccc(S(=O)(=O)O)c2)N1c1nc2ccccc2s1 (stereo not given) | > 100 µM | > 100 µM | > 100 µM | > 100 µM | > 100 µM | > 100 µM | > 100 µM | > 100 µM | > 100 µM | > 100 µM | > 100 µM | > 100 µM | > 100 µM |  |  |  |  |  |  |
| CCOC(=O)N(C)CCC1CC=CC(=O)C1c1cccc(OC)c1OC (stereo not given) | 35.9 µM | > 100 µM | 60 µM | > 100 µM | 33.6 µM | > 100 µM | 34.1 µM | > 100 µM | 25.8 µM | 27.5 µM | 80.1 µM | 27.6 µM | > 100 µM |  |  |  |  |  |  |
| CN(C)Cc1cc(N=Nc2c(Cl)cccc2Cl)ccc1O | > 100 µM | > 100 µM | > 100 µM | > 100 µM | > 100 µM | > 100 µM | > 100 µM | > 100 µM | > 100 µM | > 100 µM | > 100 µM | > 100 µM | > 100 µM |  |  |  |  |  |  |
| N#Cc1c(-c2cccc(Br)c2)cc(-c2ccc(Cl)cc2)nc1N | 48.7 µM | 43.1 µM | 73.6 µM | 56.6 µM | 60.4 µM | 34.3 µM | 39.2 µM | 79.1 µM | 34 µM | 30.4 µM | 55.6 µM | 34.8 µM | 30.5 µM |  |  |  |  |  |  |
| Cc1cc2c(c(C=Nc3ccc(N(C)C)cc3)c1)OC1(C=C2)Oc2ccccc2C(=O)N1C (stereo not given) | 23.2 µM | > 90.4 µM | 45.4 µM | 66.6 µM | 31 µM | 27.1 µM | 57.2 µM | > 67.5 µM | 30.2 µM | 36.9 µM | > 60.7 µM | 21.6 µM | 29.7 µM |  |  |  |  |  |  |
| Cc1ccc([N+](=O)[O-])cc1S(=O)(=O)Nc1ccc(C2=NOC(c3ccccc3)C2)cc1 (stereo not given) | 72.1 µM | > 100 µM | > 100 µM | 56.5 µM | 18.5 µM | > 100 µM | 43.8 µM | 22.9 µM | 25.8 µM | 30.1 µM | 67.3 µM | 24.1 µM | 24.3 µM |  |  |  |  |  |  |
| COC(=O)CC(SCCO)SCCO | > 100 µM | > 100 µM | > 100 µM | > 100 µM | > 100 µM | > 100 µM | > 100 µM | > 100 µM | > 100 µM | > 100 µM | > 100 µM | > 100 µM | > 100 µM |  |  |  |  |  |  |
| O=c1oc2ccccc2cc1-c1nc2ccccc2c(=O)[nH]1 | > 100 µM | > 100 µM | > 100 µM | > 100 µM | > 100 µM | > 100 µM | > 100 µM | > 100 µM | > 100 µM | > 100 µM | > 100 µM | > 100 µM | > 100 µM |  |  |  |  |  |  |
| Cc1nc(C)c(N2CCN(C(=O)NC(CCC(=O)O)C(=O)O)CC2)c(=O)[nH]1 (stereo not given) | > 100 µM | > 100 µM | > 100 µM | > 100 µM | > 100 µM | > 100 µM | > 100 µM | > 100 µM | > 100 µM | > 100 µM | > 100 µM | > 100 µM | > 100 µM |  |  |  |  |  |  |
| CC(C)C(=O)CC(Sc1ccc(N)cc1)c1ccccc1 (stereo not given) | > 100 µM | 67.6 µM | > 100 µM | 58.4 µM | > 100 µM | > 100 µM | > 100 µM | 83.9 µM | 57.5 µM | 30.2 µM | 99.6 µM | 28.7 µM | 33.8 µM |  |  |  |  |  |  |
